From patent US11572366B2, “Heterocyclic compounds as immunomodulators” (Incyte Corporation, priority 2015, dated 2023)
pIC50: −log10 of the molar value.

Target: PD-1/PD-L1 protein/protein interaction (Homo sapiens (Human), UniProt Q9NZQ7)
Test: PD-1/PD-L1 Homogeneous Time-Resolved Fluorescence (HTRF) binding assay
Conditions: recombinant human PD-L1 (19-238) His-tag 10 nM, human PD-1 (25-167) Fc tag 3 nM, 25° C., PBS pH 7.4
Description: Example A. PD-1/PD-L Homogeneous Time-Resolved Fluorescence (HTRF) Binding Assay
The assays were conducted in a standard black 384-well polystyrene plate with a final volume of 20 μL. Inhibitors were first serially diluted in DMSO and then added to the plate wells before the addition of other reaction components. The final concentration of DMSO in the assay was 1%. The assays were carried out at 25° C. in the PBS buffer (pH 7.4) with 0.05% Tween-20 and 0.1% BSA. Recombinant human PD-L1 protein (19-238) with a His-tag at the C-terminus was purchased from AcroBiosystems (PD1-H5229). Recombinant human PD-1 protein (25-167) with Fc tag at the C-terminus was also purchased from AcroBiosystems (PD1-H5257). PD-L1 and PD-1 proteins were diluted in the assay buffer and 10 μL was added to the plate well. Plates were centrifuged and proteins were preincubated with inhibitors for 40 minutes. The incubation was followed by the addition of 10 μL of HTRF detection buffer supplemented with Europium cryptate-labeled anti-human IgG (PerkinElmer-AD0212) specific for Fe and anti-His antibody conjugated to SureLight®-Allophycocyanin (APC, PerkinElmer-AD0059H). After centrifugation, the plate was incubated at 25° C. for 60 min. before reading on a PHERAstar FS plate reader (665 nm/620 nm ratio). Final concentrations in the assay were—3 nM PD1, 10 nM PD-L1, 1 nM europium anti-human IgG and 20 nM anti-His-Allophycocyanin.IC50 determination was performed by fitting the curve of percent control activity versus the log of the inhibitor concentration using the GraphPad Prism 5.0 software.

Sequence of PD-1/PD-L1 protein/protein interaction (Q9NZQ7 19-238): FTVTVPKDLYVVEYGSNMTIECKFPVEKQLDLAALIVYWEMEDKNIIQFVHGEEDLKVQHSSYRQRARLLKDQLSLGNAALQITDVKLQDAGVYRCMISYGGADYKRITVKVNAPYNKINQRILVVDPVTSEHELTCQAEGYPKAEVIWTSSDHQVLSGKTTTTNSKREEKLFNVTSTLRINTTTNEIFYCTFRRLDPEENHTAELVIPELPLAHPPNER

| SMILES | pIC50 |
| --- | --- |
| N#CCOc1cc2oc(-c3cccc(-c4ccc5c(c4)OCCO5)c3C#N)nc2cc1CN1CCCC[C@H]1C(=O)O [Example 37, (2S)-1-{[2-[2-cyano-3-(2,3-dihydro-1,4-benzodioxin-6-yl)phenyl]-6-(cyanomethoxy)-1,3-benzoxazol-5-yl]methyl}piperidine-2-carboxylic Acid] | 7.00 to 8.00 |
| Cc1c(-c2ccccc2)cccc1-c1cc2cc(CNCCO)cnc2o1 [Example 10, 2-({[2-(2-methylbiphenyl-3-yl)furo[2,3-b]pyridin-5-yl]methyl}amino)ethanol] | 7.00 to 8.00 |
| Cc1c(-c2ccccc2)cccc1-c1cc2cc(CNCCO)nc(C)c2o1 [Example 5, 2-({[7-methyl-2-(2-methylbiphenyl-3-yl)furo[2,3-c]pyridin-5-yl]methyl}amino)ethanol] | 7.00 to 8.00 |
| Cc1c(-c2ccccc2)cccc1-c1cc2nc(CNCCO)cnc2o1 [Example 24, 2-({[6-(2-methylbiphenyl-3-yl)furo[2,3-b]pyrazin-2-yl]methyl}amino)ethanol] | 7.00 to 8.00 |
| Cc1c(C2=CCCCC2)cccc1-c1nc2cc(CNCCO)c(OCC#N)cc2o1 [Example 40, [(2-(3-cyclohex-1-en-1-yl-2-methylphenyl)-5-{[(2-hydroxyethyl)amino]methyl}-1,3-benzoxazol-6-yl)oxy]acetonitrile] | 7.00 to 8.00 |
| Cc1c(-c2ccc3c(c2)OCCO3)cccc1-c1nc2cc(CN3CCCC[C@H]3C(=O)O)c(OCC#N)cc2o1 [Example 36, (2S)-1-({6-(cyanomethoxy)-2-[3-(2,3-dihydro-1,4-benzodioxin-6-yl)-2-methylphenyl]-1,3-benzoxazol-5-yl}methyl)piperidine-2-carboxylic Acid] | ≥ 8.00 |
| Cc1c(-c2ccccc2)cccc1-c1nc2cc(CNCCO)ncc2o1 [Example 33, 2-({[2-(2-methylbiphenyl-3-yl)[1,3]oxazolo[5,4-c]pyridin-6-yl]methyl}amino)ethanol] | 7.00 to 8.00 |
| Cc1c(-c2ccccc2)cccc1-c1nc2cc(CN3CCCC[C@H]3C(=O)O)c(OCCCC#N)cc2o1 [Example 28, (2S)-1-{[6-(3-cyanopropoxy)-2-(2-methylbiphenyl-3-yl)-1,3-benzoxazol-5-yl]methyl}piperidine-2-carboxylic Acid] | ≥ 8.00 |
| Cc1c(-c2ccccc2)cccc1-c1cc2cc(CN3CCCC[C@H]3C(=O)O)cnc2o1 [Example 9, (2S)-1-{[2-(2-methylbiphenyl-3-yl)furo[2,3-b]pyridin-5-yl]methyl}piperidine-2-carboxylic Acid] | 6.00 to 7.00 |
| Cc1c(-c2ccccc2)cccc1-c1cc2nc(CNCCO)ccc2o1 [Example 21, 2-({[2-(2-methylbiphenyl-3-yl)furo[3,2-b]pyridin-5-yl]methyl}amino)ethanol] | 7.00 to 8.00 |
| Cc1c(-c2ccccc2)cccc1-c1nc2ccc(CN3CCCC[C@H]3C(=O)O)cc2o1 [Example 38, (2S)-1-{[2-(2-methylbiphenyl-3-yl)-1,3-benzoxazol-6-yl]methyl}piperidine-2-carboxylic Acid] | 7.00 to 8.00 |
| Cc1cc(CN2CCCC[C@H]2C(=O)O)cc2nc(-c3cccc(-c4ccccc4)c3C#N)oc12 [Example 13, (2S)-1-{[2-(2-cyanobiphenyl-3-yl)-7-methyl-1,3-benzoxazol-5-yl]methyl}piperidine-2-carboxylic Acid] | 7.00 to 8.00 |
| Cc1c(-c2ccccc2)cccc1-c1nc2cc(CNCCO)c(OCCN3CCOCC3)cc2o1 [Example 32, 2-({[2-(2-methylbiphenyl-3-yl)-6-(2-morpholin-4-ylethoxy)-1,3-benzoxazol-5-yl]methyl}amino)ethanol] | ≥ 8.00 |
| Cc1c(-c2ccccc2)cccc1-c1cc2ccc(CN3CCCC[C@H]3C(=O)O)nc2o1 [Example 2, (2S)-1-{[2-(2-methylbiphenyl-3-yl)furo[2,3-b]pyridin-6-yl]methyl}piperidine-2-carboxylic Acid] | 6.00 to 7.00 |
| Cc1c(-c2ccccc2)cccc1-c1nc2cc(CN3CCCC[C@H]3C(=O)O)ccc2o1 [Example 7, (2S)-1-{[2-(2-methylbiphenyl-3-yl)-1,3-benzoxazol-5-yl]methyl}piperidine-2-carboxylic Acid] | 7.00 to 8.00 |
| Cc1cc(CNCCO)cc2nc(-c3cccc(-c4ccccc4)c3C#N)oc12 [Example 14, 3-(5-{[(2-hydroxyethyl)amino]methyl}-7-methyl-1,3-benzoxazol-2-yl)biphenyl-2-carbonitrile] | ≥ 8.00 |
| Cc1c(-c2ccccc2)cccc1-c1nc2cc(CNCCO)c(OCc3cccc(C#N)c3)cc2o1 [Example 29, 3-({[5-{[(2-hydroxyethyl)amino]methyl}-2-(2-methylbiphenyl-3-yl)-1,3-benzoxazol-6-yl]oxy}methyl)benzonitrile] | 7.00 to 8.00 |

| SMILES | pIC50 |
| --- | --- |
| Cc1c(-c2ccccc2)cccc1-c1cc2cc(CN3CCCC[C@H]3C(=O)O)nc(C)c2o1 [Example 6, (2S)-1-{[7-methyl-2-(2-methylbiphenyl-3-yl)furo[2,3-c]pyridin-5-yl]methyl}piperidine-2-carboxylic Acid] | 7.00 to 8.00 |
| Cc1c(-c2ccccc2)cccc1-c1cc2nc(CN3CCCC[C@H]3C(=O)O)cc(C)c2o1 [Example 4, (2S)-1-{[7-methyl-2-(2-methylbiphenyl-3-yl)furo[3,2-b]pyridin-5-yl]methyl}piperidine-2-carboxylic Acid] | 7.00 to 8.00 |
| Cc1c(-c2ccccc2)cccc1-c1nc2cc(CN3CCCC[C@H]3C(=O)O)ccc2s1 [Example 19, (2S)-1-{[2-(2-methylbiphenyl-3-yl)-1,3-benzothiazol-5-yl]methyl}piperidine-2-carboxylic Acid] | 6.00 to 7.00 |
| Cc1c(-c2ccccc2)cccc1-c1nc2cc(CNCCO)c(OCC#N)cc2o1 [Example 27, {[5-{[(2-hydroxyethyl)amino]methyl}-2-(2-methylbiphenyl-3-yl)-1,3-benzoxazol-6-yl]oxy}acetonitrile] | ≥ 8.00 |
| Cc1c(-c2ccccc2)cccc1-c1nc2cc(CNCCO)ccc2o1 [Example 8, 2-({[2-(2-methylbiphenyl-3-yl)-1,3-benzoxazol-5-yl]methyl}amino)ethanol] | ≥ 8.00 |
| Cc1c(-c2ccc3c(c2)OCCO3)ccnc1-c1nc2cc(CN3CCCC[C@H]3C(=O)O)c(OCC#N)cc2o1 [Example 35, (2S)-1-({6-(cyanomethoxy)-2-[4-(2,3-dihydro-1,4-benzodioxin-6-yl)-3-methylpyridin-2-yl]-1,3-benzoxazol-5-yl}methyl)piperidine-2-carboxylic Acid] | 7.00 to 8.00 |
| Cc1c(-c2ccc3c(c2)OCCO3)cccc1-c1nc2cc(CNCCO)cc(C)c2o1 [Example 16, 2-[({2-[3-(2,3-dihydro-1,4-benzodioxin-6-yl)-2-methylphenyl]-7-methyl-1,3-benzoxazol-5-yl}methyl)amino]ethanol] | ≥ 8.00 |
| Cc1c(-c2ccccc2)cccc1-c1nc2cc(CN3CCCC[C@H]3C(=O)O)c(OCC#N)cc2o1 [Example 26, (2S)-1-{[6-(cyanomethoxy)-2-(2-methylbiphenyl-3-yl)-1,3-benzoxazol-5-yl]methyl}piperidine-2-carboxylic Acid] | ≥ 8.00 |
| Cc1c(-c2ccccc2)cccc1-c1nc2cc(CN3CCCC[C@H]3C(=O)O)cc(C)c2o1 [Example 11, (2S)-1-{[7-methyl-2-(2-methylbiphenyl-3-yl)-1,3-benzoxazol-5-yl]methyl}piperidine-2-carboxylic Acid] | ≥ 8.00 |
| Cc1c(-c2ccccc2)cccc1-c1nc2c(C)cc(CNCCO)cc2s1 [Example 23, 2-({[4-methyl-2-(2-methylbiphenyl-3-yl)-1,3-benzothiazol-6-yl]methyl}amino)ethanol] | 7.00 to 8.00 |
| Cc1cc(CN2CCCC[C@H]2C(=O)O)cc2nc(-c3cccc(-c4ccc5c(c4)OCCO5)c3C#N)oc12 [Example 17, (2S)-1-({2-[2-cyano-3-(2,3-dihydro-1,4-benzodioxin-6-yl)phenyl]-7-methyl-1,3-benzoxazol-5-yl}methyl)piperidine-2-carboxylic Acid] | 7.00 to 8.00 |
| Cc1c(-c2ccccc2)cccc1-c1cc2ccc(CNCCO)nc2o1 [Example 1, 2-({[2-(2-methylbiphenyl-3-yl)furo[2,3-b]pyridin-6-yl]methyl}amino)ethanol] | 7.00 to 8.00 |
| Cc1c(-c2nc3cc(CNCCO)c(OCC#N)cc3o2)cccc1-c1ccccc1F [Example 39, [(2-(2′-fluoro-2-methylbiphenyl-3-yl)-5-{[(2-hydroxyethyl)amino]methyl}-1,3-benzoxazol-6-yl)oxy]acetonitrile] | ≥ 8.00 |
| Cc1c(-c2ccccc2)cccc1-c1cc2nc(CN3CCCC[C@H]3C(=O)O)ccc2o1 [Example 20, (2S)-1-{[2-(2-methylbiphenyl-3-yl)furo[3,2-b]pyridin-5-yl]methyl}piperidine-2-carboxylic Acid] | 6.00 to 7.00 |
| Cc1c(-c2ccccc2)cccc1-c1nc2cc(CNCCO)cc(C)c2o1 [Example 12, 2-({[7-methyl-2-(2-methylbiphenyl-3-yl)-1,3-benzoxazol-5-yl]methyl}amino)ethanol] | ≥ 8.00 |
| Cc1cc(CNCCO)cc2nc(-c3cccc(-c4ccc5c(c4)OCCO5)c3C#N)oc12 [Example 18, 2-(2,3-dihydro-1,4-benzodioxin-6-yl)-6-(5-{[(2-hydroxyethyl)amino]methyl}-7-methyl-1,3-benzoxazol-2-yl)benzonitrile] | ≥ 8.00 |
